From publication PMC7865522, “Analyzing Kinase Similarity in Small Molecule and Protein Structural Space to Explore the Limits of Multi-Target Screening” (Molecules, 2021)

Experiments:
BRAF [1] = target: T1, BRAF (Homo sapiens, UniProt P15056); assay: DiscoverX KINOMEscan competition binding assay; conditions: compound 10 µM, lower values = higher affinity, below 35% = significant binding
T1 construct: purchased DiscoverX (KINOMEscan service); host or cells: E. coli BL21-derived host (T7 phage) or HEK-293
Experimental: (§1) Ligand binding experiments for the molecules selected from Profiles 1 and 2 towards nine kinases (EGFR, ErbB2, LCK, CDK2, BRAF, MET, p38α, PI3K and VEGFR2) and for molecules selected from Profiles 3 and 4 towards four kinases (EGFR, ErbB2, BRAF and VEGFR2) were carried out by DiscoverX using the supplied protocol as described in the Supplementary Materials. Briefly, ligand affinity was measured by competition with a resin-bound standard ligand and washed-off kinase concentration was determined via qPCR.
(§2) Summarizing, binding of a compound to a kinase was tested in comparison to a control compound (see Table S2). […]
(§3) 1.1. DiscoverX kinase assay
(§4) For most assays, kinase-tagged T7 phage strains were grown in parallel in 24-well blocks in an E.coli host derived from the BL21 strain. E.coli were grown to log-phase and infected with T7 phage from a frozen stock (multiplicity of infection = 0.4) and incubated with shaking at 32°C until lysis (90-150 minutes). The lysates were centrifuged (6,000 x g) and ﬁltered (0.2µm) to remove cell debris.
(§5) The remaining kinases were produced in HEK-293 cells and subsequently tagged with DNA for qPCR detection. Streptavidin-coated magnetic beads were treated with biotinylated small molecule ligands for 30 minutes at room temperature to generate afﬁnity resins for the kinases. The liganded beads were blocked with excess biotin and washed with blocking buffer (SeaBlock [Pierce], 1% BSA, 0.05% Tween 20, 1 mM DTT) to remove unbound ligands and to reduce non-speciﬁc phage binding. Binding reactions were assembled by combining kinases, liganded afﬁnity beads, and test compounds in 1x binding buffer (20% SeaBlock, 0.17x PBS, 0.05% Tween 20, 6 mM DTT). Test compounds were prepared as 40x stocks in 100% DMSO and directly diluted into the assay. All reactions were performed in polypropylene 384-well plates in a ﬁnal volume of 0.02 ml. The assay plates were incubated at room temperature with shaking for 1 hour and the afﬁnity beads were washed with wash buffer (1x PBS, 0.05% Tween 20). The beads were then re-suspended in elution buffer (1x PBS, 0.05% Tween 20, 0.5 µM non-biotinylated afﬁnity ligand) and incubated at room temperature with shaking for 30 minutes. The kinase concentration in the eluates was measured by qPCR. […]
(§6) Table S2. Experimental % control values from the DiscoverX kinase assay. Compounds were tested against the nine kinases EGFR, ErbB2, LCK, CDK2, BRAF, MET, p38α, PI3K and VEGFR2, unless otherwise stated. Binding of kinase and compound were tested at a compound concentration of 10 µM and in comparison to a control compound. Lower values indicate a higher afﬁnity of the compound to the protein and values below 35% indicate signiﬁcant binding according to information of the CRO. […]
(§7) a Compounds were only tested against four kinases (EGFR, ErbB2, BRAF and VEGFR2). b Compound was selected independently from two docking proﬁles and tested separately during

CDK2 = target: T2, CDK2 (Homo sapiens, UniProt P24941); assay: DiscoverX KINOMEscan competition binding assay; conditions: compound 10 µM; lower values = higher affinity; below 35% = significant binding
T2 construct: purchased DiscoverX (KINOMEscan service); host or cells: E. coli BL21-derived host (T7 phage) or HEK-293
Experimental: as §1, §2, §3, §4, §5, §6, §7

EGFR [2] = target: T3, EGFR (Homo sapiens, UniProt P00533); assay: DiscoverX KINOMEscan competition binding assay; conditions: compound 10 µM; lower values = higher affinity; below 35% = significant binding
T3 construct: purchased DiscoverX (KINOMEscan service); host or cells: E. coli BL21-derived host (T7 phage) or HEK-293
Experimental: as §1, §2, §3, §4, §5, §6, §7

ErbB2 [3] = target: T4, ErbB2 (Homo sapiens, UniProt P04626); assay: DiscoverX KINOMEscan competition binding assay; conditions: compound 10 µM, lower values = higher affinity, below 35% = significant binding
T4 construct: purchased DiscoverX (KINOMEscan service); host or cells: E. coli BL21-derived host (T7 phage) or HEK-293
Experimental: as §1, §2, §3, §4, §5, §6, §7

LCK = target: T5, LCK (Homo sapiens, UniProt P06239); assay: DiscoverX KINOMEscan competition binding assay; conditions: compound 10 µM; lower values = higher affinity; below 35% = significant binding
T5 construct: purchased DiscoverX (KINOMEscan service); host or cells: E. coli BL21-derived host (T7 phage) or HEK-293
Experimental: as §1, §2, §3, §4, §5, §6, §7

MET = target: T6, MET (Homo sapiens, UniProt P08581); assay: DiscoverX KINOMEscan competition binding assay; conditions: compound 10 µM; lower values = higher affinity; below 35% = significant binding
T6 construct: purchased DiscoverX (KINOMEscan service); host or cells: E. coli BL21-derived host (T7 phage) or HEK-293
Experimental: as §1, §2, §3, §4, §5, §6, §7

VEGFR2 = target: T7, VEGFR2 (Homo sapiens, UniProt P35968); assay: DiscoverX KINOMEscan competition binding assay; conditions: compound 10 µM, lower values = higher affinity, below 35% = significant binding
T7 construct: purchased DiscoverX (KINOMEscan service); host or cells: E. coli BL21-derived host (T7 phage) or HEK-293
Experimental: as §1, §2, §3, §4, §5, §6, §7

p38α = target: T8, p38α (Homo sapiens, UniProt Q16539); assay: DiscoverX KINOMEscan competition binding assay; conditions: compound 10 µM; lower values = higher affinity; below 35% = significant binding
T8 construct: purchased DiscoverX (KINOMEscan service); host or cells: E. coli BL21-derived host (T7 phage) or HEK-293
Experimental: as §1, §2, §3, §4, §5, §6, §7

BRAF [4] = target: T1, BRAF; assay: Eurofins in vitro kinase inhibition assay; assay type: biochemical; conditions: compound 20 µM; mean (SD); above 50% significant, 25-50% weak
Experimental: (§8) Kinase inhibition assays for EGFR, ErbB2, PI3K and BRAF were carried out by Eurofins Cerep following the protocols of Weber et al. (EGFR), Quian et al. (ErbB2), Sinnamon et al. (PI3K) and Kupcho et al. (BRAF). Briefly, except for PI3K, compounds were incubated with the respective kinase, ATP, and a substrate analog, and the effect of each compound on phosphorylation was measured. In the case of PI3K, the displacement of biotinylated PIP3 from a PIP3-binding complex by unlabelled PIP3 (produced from PIP2 by PI3K) was measured by Homogeneous Time Resolved Fluorescence (HTRF).
(§9) Finally, inhibition of the respective kinases is calculated as the percentage inhibition of control activity.
(§10) Table S3. Experimental results from the Euroﬁns assay. Inhibition of four kinases (EGFR, PI3K, ErbB2, BRAF) was measured at compound concentrations of 20 µM. Inhibition was calculated as % inhibition of control activity. According to CRO, values above 50% inhibition represent signiﬁcant inhibition, values above 25% weak inhibition effect and values below 25% as well as negative values are usually not signiﬁcant. Results are reported in mean (SD) format. […]
(§11) a Compound interfered with assay readout.

EGFR [5] = target: T3, EGFR; assay: Eurofins in vitro kinase inhibition assay; assay type: biochemical; conditions: compound 20 µM; mean (SD); above 50% significant, 25-50% weak
Experimental: as §8, §9, §10, §11

ErbB2 [6] = target: T4, ErbB2; assay: Eurofins in vitro kinase inhibition assay; assay type: biochemical; conditions: compound 20 µM; mean (SD); above 50% significant, 25-50% weak
Experimental: as §8, §9, §10, §11

PI3K [7] = target: T9, PI3K (Homo sapiens, UniProt P42336); assay: Eurofins in vitro kinase inhibition assay (HTRF, PIP3 displacement); assay type: biochemical; design: purchased Eurofins Cerep (contract assay); conditions: compound 20 µM; mean (SD); above 50% significant, 25-50% weak
Experimental: as §8, §9, §10, §11

PI3K [8] = target: T9, PI3K; assay: DiscoverX KINOMEscan competition binding assay; design: purchased DiscoverX (KINOMEscan service); host or cells: E. coli BL21-derived host (T7 phage) or HEK-293; conditions: compound 10 µM; lower values = higher affinity; below 35% = significant binding
Experimental: as §1, §2, §3, §4, §5, §6, §7

T1 sequence (P15056 whole entry): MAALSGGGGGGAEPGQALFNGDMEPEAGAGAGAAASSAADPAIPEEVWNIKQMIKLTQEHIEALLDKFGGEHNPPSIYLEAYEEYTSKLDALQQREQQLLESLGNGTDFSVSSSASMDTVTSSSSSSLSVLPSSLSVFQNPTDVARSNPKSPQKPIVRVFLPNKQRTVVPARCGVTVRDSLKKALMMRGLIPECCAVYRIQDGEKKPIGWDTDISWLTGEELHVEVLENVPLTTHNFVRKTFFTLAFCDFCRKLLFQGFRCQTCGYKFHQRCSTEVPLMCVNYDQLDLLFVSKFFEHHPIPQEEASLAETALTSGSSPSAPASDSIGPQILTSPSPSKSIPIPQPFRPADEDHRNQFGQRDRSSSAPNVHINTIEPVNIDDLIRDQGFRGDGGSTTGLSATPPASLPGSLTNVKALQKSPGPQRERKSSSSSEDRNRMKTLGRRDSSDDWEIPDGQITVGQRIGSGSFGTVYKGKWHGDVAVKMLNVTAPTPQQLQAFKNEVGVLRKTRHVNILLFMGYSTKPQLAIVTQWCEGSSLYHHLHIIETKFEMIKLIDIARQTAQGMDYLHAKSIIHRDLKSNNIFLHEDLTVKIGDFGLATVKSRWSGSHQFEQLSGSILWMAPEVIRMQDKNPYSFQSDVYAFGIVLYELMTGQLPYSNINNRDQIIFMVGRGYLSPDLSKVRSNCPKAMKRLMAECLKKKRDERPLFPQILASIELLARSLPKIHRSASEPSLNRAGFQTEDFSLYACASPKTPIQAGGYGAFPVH
T6 sequence (P08581 25-1390): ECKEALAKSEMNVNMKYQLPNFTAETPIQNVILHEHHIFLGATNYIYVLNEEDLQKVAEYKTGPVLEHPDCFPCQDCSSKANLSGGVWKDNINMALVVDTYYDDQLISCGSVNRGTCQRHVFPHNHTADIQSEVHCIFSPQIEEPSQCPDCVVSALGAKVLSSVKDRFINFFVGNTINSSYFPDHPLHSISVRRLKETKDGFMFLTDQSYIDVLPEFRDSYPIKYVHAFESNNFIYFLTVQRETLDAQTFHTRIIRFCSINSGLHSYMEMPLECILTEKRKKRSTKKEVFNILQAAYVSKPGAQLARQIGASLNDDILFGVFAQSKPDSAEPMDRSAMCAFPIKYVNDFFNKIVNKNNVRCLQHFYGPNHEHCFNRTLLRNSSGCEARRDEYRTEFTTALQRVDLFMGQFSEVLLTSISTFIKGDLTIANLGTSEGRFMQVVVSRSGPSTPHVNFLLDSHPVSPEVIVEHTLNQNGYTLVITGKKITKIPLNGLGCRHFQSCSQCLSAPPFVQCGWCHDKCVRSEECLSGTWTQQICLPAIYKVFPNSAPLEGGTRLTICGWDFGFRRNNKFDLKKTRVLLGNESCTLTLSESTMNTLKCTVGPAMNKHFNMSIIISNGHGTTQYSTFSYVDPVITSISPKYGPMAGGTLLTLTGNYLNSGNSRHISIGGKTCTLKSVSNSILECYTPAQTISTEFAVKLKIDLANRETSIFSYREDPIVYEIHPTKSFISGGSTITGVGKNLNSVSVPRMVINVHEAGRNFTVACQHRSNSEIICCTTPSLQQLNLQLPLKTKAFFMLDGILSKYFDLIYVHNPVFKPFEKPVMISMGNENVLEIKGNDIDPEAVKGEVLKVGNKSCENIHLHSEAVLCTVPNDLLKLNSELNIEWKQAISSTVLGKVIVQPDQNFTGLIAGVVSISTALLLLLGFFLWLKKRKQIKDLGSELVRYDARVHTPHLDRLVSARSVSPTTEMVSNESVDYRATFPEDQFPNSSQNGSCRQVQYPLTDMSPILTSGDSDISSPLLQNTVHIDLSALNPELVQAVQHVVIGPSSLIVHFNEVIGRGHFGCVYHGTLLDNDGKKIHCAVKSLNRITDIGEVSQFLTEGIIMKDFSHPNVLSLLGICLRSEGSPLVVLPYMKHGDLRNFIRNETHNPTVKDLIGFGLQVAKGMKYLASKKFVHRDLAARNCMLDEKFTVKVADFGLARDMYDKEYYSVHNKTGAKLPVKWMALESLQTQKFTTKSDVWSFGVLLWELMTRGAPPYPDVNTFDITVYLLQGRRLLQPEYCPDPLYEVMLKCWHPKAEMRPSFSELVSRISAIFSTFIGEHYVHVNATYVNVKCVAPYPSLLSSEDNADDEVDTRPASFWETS
T3 sequence (P00533 25-1210): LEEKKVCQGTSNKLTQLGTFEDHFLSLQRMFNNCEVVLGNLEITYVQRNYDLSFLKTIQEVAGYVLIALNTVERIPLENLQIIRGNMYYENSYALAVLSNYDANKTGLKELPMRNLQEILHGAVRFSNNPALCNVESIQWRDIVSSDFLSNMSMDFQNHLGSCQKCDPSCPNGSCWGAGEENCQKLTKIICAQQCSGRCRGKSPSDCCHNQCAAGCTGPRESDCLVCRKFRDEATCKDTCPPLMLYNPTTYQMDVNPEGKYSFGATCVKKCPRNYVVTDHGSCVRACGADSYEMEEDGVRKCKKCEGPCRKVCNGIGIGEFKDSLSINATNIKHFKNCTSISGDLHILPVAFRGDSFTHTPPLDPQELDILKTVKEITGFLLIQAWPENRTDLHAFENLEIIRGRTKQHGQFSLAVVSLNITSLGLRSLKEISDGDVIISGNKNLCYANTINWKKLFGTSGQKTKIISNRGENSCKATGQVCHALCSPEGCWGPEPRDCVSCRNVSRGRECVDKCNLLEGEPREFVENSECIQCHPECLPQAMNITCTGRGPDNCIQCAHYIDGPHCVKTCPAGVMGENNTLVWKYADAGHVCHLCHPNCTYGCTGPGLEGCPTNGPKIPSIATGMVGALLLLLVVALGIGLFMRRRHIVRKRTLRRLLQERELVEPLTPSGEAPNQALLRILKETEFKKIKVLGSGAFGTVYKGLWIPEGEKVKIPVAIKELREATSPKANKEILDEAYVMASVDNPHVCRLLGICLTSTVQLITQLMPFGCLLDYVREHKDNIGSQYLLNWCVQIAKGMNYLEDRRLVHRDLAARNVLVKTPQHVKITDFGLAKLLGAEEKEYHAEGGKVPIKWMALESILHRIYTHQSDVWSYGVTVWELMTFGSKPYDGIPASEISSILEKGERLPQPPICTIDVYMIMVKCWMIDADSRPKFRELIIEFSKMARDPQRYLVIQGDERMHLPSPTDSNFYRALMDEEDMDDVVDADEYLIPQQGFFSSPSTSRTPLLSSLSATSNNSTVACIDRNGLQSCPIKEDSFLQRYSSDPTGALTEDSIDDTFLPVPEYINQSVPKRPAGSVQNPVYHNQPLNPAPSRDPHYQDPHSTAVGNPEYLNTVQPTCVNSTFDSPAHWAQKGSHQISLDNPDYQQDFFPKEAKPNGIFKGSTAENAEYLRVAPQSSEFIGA
T5 sequence (P06239 whole entry): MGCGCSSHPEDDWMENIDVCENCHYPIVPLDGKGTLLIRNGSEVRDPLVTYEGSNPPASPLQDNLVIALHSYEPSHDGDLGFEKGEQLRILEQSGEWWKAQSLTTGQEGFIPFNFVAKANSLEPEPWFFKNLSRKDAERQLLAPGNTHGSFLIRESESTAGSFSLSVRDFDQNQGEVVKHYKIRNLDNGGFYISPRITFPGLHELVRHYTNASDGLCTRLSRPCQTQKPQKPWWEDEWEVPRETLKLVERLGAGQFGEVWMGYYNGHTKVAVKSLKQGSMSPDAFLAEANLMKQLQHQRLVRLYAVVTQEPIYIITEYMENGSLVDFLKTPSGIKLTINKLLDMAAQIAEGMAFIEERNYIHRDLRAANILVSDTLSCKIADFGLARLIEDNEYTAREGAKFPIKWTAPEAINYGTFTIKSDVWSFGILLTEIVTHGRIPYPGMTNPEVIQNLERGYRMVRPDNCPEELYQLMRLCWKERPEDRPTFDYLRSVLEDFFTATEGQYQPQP
T8 sequence (Q16539 whole entry): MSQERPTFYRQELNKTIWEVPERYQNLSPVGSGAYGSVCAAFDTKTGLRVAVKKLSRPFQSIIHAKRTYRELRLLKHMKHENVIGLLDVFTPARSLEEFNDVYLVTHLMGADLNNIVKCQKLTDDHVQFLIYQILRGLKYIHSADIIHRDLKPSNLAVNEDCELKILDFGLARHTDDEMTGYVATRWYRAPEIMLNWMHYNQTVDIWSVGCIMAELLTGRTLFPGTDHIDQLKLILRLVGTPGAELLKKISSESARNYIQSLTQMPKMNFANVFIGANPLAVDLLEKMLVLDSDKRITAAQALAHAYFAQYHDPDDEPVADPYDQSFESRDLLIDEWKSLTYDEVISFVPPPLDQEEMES

Row | Structure (SMILES) | % control, BRAF (DiscoverX) (BRAF [1]) [% control] | % control, BRAF (DiscoverX) (BRAF [1]; listed as K001MM009) [% control] | % control, CDK2 (DiscoverX) (CDK2) [% control] | % control, EGFR (DiscoverX) (EGFR [2]) [% control] | % control, ErbB2 (DiscoverX) (ErbB2 [3]) [% control] | % control, ErbB2 (DiscoverX) (ErbB2 [3]; listed as K001MM009) [% control] | % control, LCK (DiscoverX) (LCK) [% control] | % control, MET (DiscoverX) (MET) [% control] | % control, VEGFR2 (DiscoverX) (VEGFR2) [% control] | % control, VEGFR2 (DiscoverX) (VEGFR2; listed as K001MM009) [% control] | % control, p38α (DiscoverX) (p38α) [% control] | % inhibition of control activity, BRAF (Eurofins) (BRAF [4]) | % inhibition of control activity, EGFR (Eurofins) (EGFR [5]) | % inhibition of control activity, ErbB2 (Eurofins) (ErbB2 [6]) | % inhibition of control activity, PI3K (Eurofins) (PI3K [7]) | % control, PI3K (DiscoverX) (PI3K [8]) [% control]
1 | O=C1C[C@@H](c2noc(-c3ccc[nH]c3=O)n2)CN1Cc1ccccc1 [DS52225] | 100 | – | 100 | 100 | 94 | – | 100 | 91 | 98 | – | 100 | -17.7 (15.6) % inhibition | 22.7 (15.5) % inhibition | 4.5 (4.9) % inhibition | 0.9 (3.6) % inhibition | 100
2 | C[C@H](COCC(F)(F)F)NC(=O)Cc1n[nH]c(=O)c2ccccc12 [DS04644] | 97 | – | 99 | 100 | 100 | – | 96 | 100 | 100 | – | 100 | -14.7 (7.4) % inhibition | 3.4 (1.8) % inhibition | -7.4 (1.0) % inhibition | -2.8 (0.6) % inhibition | 100
3 | O=C(NCC1CC1)Nc1ccc(N2CCOC2=O)cc1 [DS75739] | 100 | – | 100 | 100 | 94 | – | 100 | 85 | 100 | – | 87 | -11.1 (4.9) % inhibition | 4.3 (6.9) % inhibition | -0.6 (1.1) % inhibition | 1.7 (0.8) % inhibition | 100

The next lines start with the values.

Row | % control, BRAF (DiscoverX) (BRAF [1]) [% control] | % control, BRAF (DiscoverX) (BRAF [1]; listed as K001MM009) [% control] | % control, CDK2 (DiscoverX) (CDK2) [% control] | % control, EGFR (DiscoverX) (EGFR [2]) [% control] | % control, ErbB2 (DiscoverX) (ErbB2 [3]) [% control] | % control, ErbB2 (DiscoverX) (ErbB2 [3]; listed as K001MM009) [% control] | % control, LCK (DiscoverX) (LCK) [% control] | % control, MET (DiscoverX) (MET) [% control] | % control, VEGFR2 (DiscoverX) (VEGFR2) [% control] | % control, VEGFR2 (DiscoverX) (VEGFR2; listed as K001MM009) [% control] | % control, p38α (DiscoverX) (p38α) [% control] | % inhibition of control activity, BRAF (Eurofins) (BRAF [4]) | % inhibition of control activity, EGFR (Eurofins) (EGFR [5]) | % inhibition of control activity, ErbB2 (Eurofins) (ErbB2 [6]) | % inhibition of control activity, PI3K (Eurofins) (PI3K [7]) | % control, PI3K (DiscoverX) (PI3K [8]) [% control] | Structure (SMILES)
4 | 100 | 96 | 100 | 100 | 91 | 98 | 100 | 84 | 100 | 98 | 100 | -20.8 (0.4) % inhibition | 4.4 (14.0) % inhibition | 10.5 (23.6) % inhibition | 0.4 (1.7) % inhibition | 94 | Cc1ccc(-n2cnnn2)cc1NC(=O)NCC1CC1 [DS44738]
5 | 86 | – | 100 | 89 | 100 | – | 100 | 100 | 100 | – | 100 | -0.3 (1.6) % inhibition | 18 (3.2) % inhibition | -2.8 (0.7) % inhibition | 2.1 (0.4) % inhibition | 97 | O=C(O)c1cncnc1NCc1nc(-c2cnccn2)n[nH]1 [DS74417]
